Patent publication US9328124B2, “BACE inhibitors” (Eli Lilly and Company, priority 2012, dated 2016)
Structures can show the parent of a compound that is named as a salt. Where two headings read alike, the source gives them in different places.

Tests used:
[1] = target: native, endogenous murine BACE1 (Mus musculus (Mouse), UniProt P56818); assay: PDAPP primary neuronal assay (Abeta ELISA); format: cell-based; settings: primary cortical neurons from PDAPP embryos
Method: For in vitro enzymatic and cellular assays, test compounds are prepared in DMSO to make up a 10 mM stock solution. […] A confirmatory whole cell assay is also run in primary neuronal cultures generated from PDAPP transgenic embryonic mice. […] After 2 days in vitro, culture media is replaced with serum free DMEM/F12 (1:1) containing B27 supplement and 2 μM (final) of Ara-C (Sigma, C1768). At day 5 in vitro, neurons are incubated at 37° C. for 24 h in the presence/absence of inhibitors (diluted in DMSO) at the desired concentration. At the end of the incubation, conditioned media are analyzed for evidence of beta-secretase activity, for example, by analysis of Abeta peptides. […] Both Abeta 1-40 and Abeta 1-42 ELISAs use biotinylated 3D6 as the reporting antibody. The concentration of Abeta released in the conditioned media following the compound treatment corresponds to the activity of BACE1 under such conditions.

human BACE1(1-460):Fc = human BACE1(1-460):Fc (Homo sapiens (Human), UniProt P56817); assay: BACE1 FRET assay; format: biochemical; settings: purified recombinant human BACE1, FRET; Mean ± SEM
Sequence of human BACE1(1-460):Fc (P56817 22-460): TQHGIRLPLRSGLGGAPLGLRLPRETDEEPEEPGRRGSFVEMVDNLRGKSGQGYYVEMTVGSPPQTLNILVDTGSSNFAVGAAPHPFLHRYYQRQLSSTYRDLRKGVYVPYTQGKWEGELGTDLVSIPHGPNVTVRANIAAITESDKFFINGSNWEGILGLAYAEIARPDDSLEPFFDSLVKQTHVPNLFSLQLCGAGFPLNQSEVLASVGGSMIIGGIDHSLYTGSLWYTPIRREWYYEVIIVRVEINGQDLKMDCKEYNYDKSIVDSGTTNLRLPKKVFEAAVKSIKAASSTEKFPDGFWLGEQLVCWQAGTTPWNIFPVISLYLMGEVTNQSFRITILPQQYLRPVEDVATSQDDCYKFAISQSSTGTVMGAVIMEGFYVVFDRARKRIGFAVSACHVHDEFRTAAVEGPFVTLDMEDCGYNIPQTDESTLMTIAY
Method: For in vitro enzymatic and cellular assays, test compounds are prepared in DMSO to make up a 10 mM stock solution.
This fusion protein of BACE1(1-460) and human Fc, named huBACE1:Fc, is constructed into the pJB02 vector. Human BACE1(1-460):Fc (huBACE1:Fc) is transiently expressed in HEK293 cells. 250 μg cDNA of each construct is mixed with Fugene 6 and added to 1 liter HEK293 cells. Four days after the transfection, conditioned media are harvested for purification. huBACE1:Fc is purified by Protein A chromatography. The enzyme is stored at −80° C. in small aliquots.
Serial dilutions of test compounds are prepared as described above. Compounds are further diluted 20× in KH2PO4 buffer. Ten μL of each dilution is added to each well on row A to H of a corresponding low protein binding black plate containing the reaction mixture (25 μL of 50 mM KH2PO4, pH 4.6, 1 mM TRITON® X-100, 1 mg/mL Bovine Serum Albumin, and 15 μM of FRET substrate) (See Yang, et. al., J. Neurochemistry, 91(6) 1249-59 (2004)). The content is mixed well on a plate shaker for 10 minutes. […] The RFU of the mixture at time 0 is recorded at excitation wavelength 355 nm and emission wavelength 460 nm, after brief mixing on a plate shaker. […] The RFU at the end of incubation is recorded with the same excitation and emission settings used at time 0. […]

[2] = target: BACE (the beta-secretase enzyme) (Mus musculus (Mouse), UniProt P56818); assay: In vivo inhibition of beta-secretase in PDAPP mice (brain Abeta 1-x); settings: 3 hours, young female PDAPP mice, vs vehicle
Sequence of BACE (the beta-secretase enzyme) (P56818 46-501): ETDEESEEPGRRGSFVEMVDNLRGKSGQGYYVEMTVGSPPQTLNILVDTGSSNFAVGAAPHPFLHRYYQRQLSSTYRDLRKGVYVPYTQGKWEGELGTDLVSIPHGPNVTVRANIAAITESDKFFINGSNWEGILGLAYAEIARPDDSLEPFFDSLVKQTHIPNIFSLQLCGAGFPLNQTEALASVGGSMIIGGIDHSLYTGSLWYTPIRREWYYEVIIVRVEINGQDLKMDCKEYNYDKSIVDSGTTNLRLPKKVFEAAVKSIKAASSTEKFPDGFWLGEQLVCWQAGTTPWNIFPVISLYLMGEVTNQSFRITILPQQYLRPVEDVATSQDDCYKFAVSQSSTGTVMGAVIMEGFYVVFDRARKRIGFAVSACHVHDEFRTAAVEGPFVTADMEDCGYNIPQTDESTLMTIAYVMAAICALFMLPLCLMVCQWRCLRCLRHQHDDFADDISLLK
Method: Several animal models, including mouse, rat, guinea pig, dog, and monkey, may be used to screen for inhibition of beta-secretase activity in vivo following compound treatment Animals used in this invention were transgenic PDAPP mice as described in Games et al., Nature 373, 523-527 (1995), which have been useful to analyze in vivo inhibition of Abeta production in the presence of inhibitory compounds. Two month old PDAPP mice are administered compound formulated in N-methylpyrolidone (Pharmasolve®) in water. Three hours following the administration of compound, animals are sacrificed, and brains are removed for analysis of Abeta fragments. (See Dovey, et al., Journal of Neurochemistry, 76, 173-181 (2001); and Johnson-Wood, et al., Proc. Natl. Acad. Sci. USA, 94, 1550-1555 (1997)).
For standard in vivo pharmacology studies, animals are dosed with various concentrations of compound and compared to a vehicle-treated control group dosed at the same time. At the end of the test period, animals are sacrificed and brain tissues are analyzed for the presence of Abeta peptides by specific sandwich ELISA assays. “Abeta 1-x peptide” as used herein refers to the sum of Abeta species that begin with residue 1 and end with a C-terminus greater than residue 28. This detects the majority of Abeta species and is often called “total Abeta”.
Significant and dose-responsive reduction of total Abeta after oral administration of the compound of Example 8 is consistent with a mechanism of BACE (the beta-secretase enzyme) inhibition in vivo. […] As such, compounds of the present invention are efficacious inhibitors of BACE.

[3] = target: native endogenous human BACE1 (Homo sapiens (Human), UniProt P56817); assay: HEK293Swe whole cell assay (Abeta ELISA); format: cell-based; settings: HEK293/APP751sw cells
Sequence of native endogenous human BACE1 (P56817 46-501): as the sequence (P56818 46-501) above, with S6P, I162V, I165L, T180S, A182V, V340I, A393L, H443Q counted along it
Method: For in vitro enzymatic and cellular assays, test compounds are prepared in DMSO to make up a 10 mM stock solution. The stock solution is serially diluted in DMSO to obtain a ten-point dilution curve with final compound concentrations ranging from […] to 1 nM in a 96-well round-bottom plate before conducting the in vitro enzymatic and whole cell assays. […]
Cells (HEK293/APP751sw at 3.5×10^4 cells/well, containing 200 μL culture media, DMEM containing 10% FBS) are incubated at 37° C. for 4 to 24 h in the presence/absence of inhibitors (diluted in DMSO) at the desired concentration. At the end of the incubation, conditioned media are analyzed for evidence of beta-secretase activity, for example, by analysis of Abeta peptides. Total Abeta peptides (Abeta 1-x) are measured by a sandwich ELISA, using monoclonal 266 as a capture antibody and biotinylated 3D6 as reporting antibody. Alternatively, Abeta 1-40 and Abeta 1-42 peptides are measured by a sandwich ELISA, using monoclonal 2G3 as a capture antibody for Abeta 1-40, and monoclonal 21F12 as a capture antibody for Abeta 1-42. […]

[4] = Abeta 1-40, read-out: PDAPP Neuron A-beta (1-40) ELISA IC50
[5] = Abeta 1-42, read-out: PDAPP Neuron A-beta (1-42) ELISA IC50

Sequence of native, endogenous murine BACE1 (P56818 46-501): as the sequence (P56818 46-501) above

Row | IC50 [1, 4] | IC50 [1, 5] | SMILES | IC50 (human BACE1(1-460):Fc) | Abeta 1-x peptide levels reduced in brain cortex ([2]; 10 mg/kg oral dose) | Abeta 1-x peptide levels reduced in brain hippocampus ([2]; 10 mg/kg oral dose) | Abeta 1-x peptide levels reduced in brain cortex ([2]; 30 mg/kg oral dose) | Abeta 1-x peptide levels reduced in brain hippocampus ([2]; 30 mg/kg oral dose) | IC50 ([3]; Abeta 1-40, read-out: HEK 293 Swe A-beta (1-40) ELISA IC50) | IC50 ([3]; Abeta 1-42, read-out: HEK 293 Swe A-beta (1-42) ELISA IC50)
1 | 98.2 nM | 80.1 nM | CC(C)(O)c1nc(N2C[C@H]3CSC(N)=N[C@@]3(c3cccnc3)C2)ncc1F [Example 15, 2-[2-[(4aR,7aS)-2-Amino-7a-(3-pyridyl)-4,4a,5,7-tetrahydropyrrolo[3,4-d][1,3]thiazin-6-yl]-5-fluoro-pyrimidin-4-yl]propan-2-ol hydrochloride] | 93.5 nM | – | – | – | – | – | –
2 | 109 nM | 83.1 nM | CC(C)(O)c1nc(N2C[C@H]3CSC(N)=N[C@@]3(c3ccc(F)cn3)C2)ncc1F [Example 12, 2-[2-[(4aR,7aR)-2-Amino-7a-(5-fluoro-2-pyridyl)-4,4a,5,7-tetrahydropyrrolo[3,4-d][1,3]thiazin-6-yl]-5-fluoro-pyrimidin-4-yl]propan-2-ol hydrochloride] | – | – | – | – | – | – | –

Row | SMILES | IC50 [1, 4] | IC50 [1, 5] | IC50 (human BACE1(1-460):Fc) | Abeta 1-x peptide levels reduced in brain cortex ([2]; 10 mg/kg oral dose) | Abeta 1-x peptide levels reduced in brain hippocampus ([2]; 10 mg/kg oral dose) | Abeta 1-x peptide levels reduced in brain cortex ([2]; 30 mg/kg oral dose) | Abeta 1-x peptide levels reduced in brain hippocampus ([2]; 30 mg/kg oral dose) | IC50 ([3]; Abeta 1-40, read-out: HEK 293 Swe A-beta (1-40) ELISA IC50) | IC50 ([3]; Abeta 1-42, read-out: HEK 293 Swe A-beta (1-42) ELISA IC50)
3 | CC(C)(O)c1nc(N2C[C@H]3CSC(N)=N[C@@]3(c3cnccn3)C2)ncc1F.Cl [Example 8, 2-[2-[(4aR,7aR)-2-Amino-7a-pyrazin-2-yl-4,4a,5,7-tetrahydropyrrolo[3,4-d][1,3]thiazin-6-yl]-5-fluoro-pyrimidin-4-yl]propan-2-ol hydrochloride] | 455 nM | 412 nM | 105 nM | approximately 23% | approximately 19% | ~53% | ~46% | 242 nM | 395 nM
